From patent US7074743B1, “Herbicidal composition comprising 4-iodo-2-[3-(4-methoxy-6-methyl-1,3,5-triazin-2-yl)ureidosulfonyl]benzoic esters” (priority 1995, dated 2006)

Assays:
Type in all cases: in vivo
[1] = system: Phalaris canariensis; assay: Herbicidal action on PHACA, visual scoring vs untreated, post-emergence 2-4 leaf stage (greenhouse / field trials)
Method: (§1) The examples given below were performed in the greenhouse and, in some cases, in field trials.
(§2) The herbicides, or combinations, were applied in cereals after the weeds had emerged naturally using plot sprayers. After application, the results, such as damage to the crop plants and effect on broad-leaved weeds/grass weeds were assessed by means of visual scoring. The herbicidal action was assessed qualitatively and quantitatively by comparing untreated and treated plots on the basis of the effect on plant growth and the development of chloroses and necroses down to the complete destruction of the weeds (0–100%). The application was effected when the crop plants and weeds were in the 2–4 leaf stage. The test was evaluated approximately 4 weeks after application.
(§3) In the greenhouse experiments, the crop plants and broadleaved weeds/grass weeds were grown in No. 13 pots and treated in the 2–4 leaf stage. The pots were subsequently placed in the greenhouse under good growth conditions (temperature, atmospheric humidity, water supply).
(§4) The assessments were carried out similarly to those in the field trials, i.e. visual scoring of the treated plants in comparison with untreated control variants. These assessments were carried out 3 weeks after applying the test preparations and their combinations. The experiments had been set up in two replications.
(§5) To assess the combination effects, the activities of the individual components were added and compared with the activity of the mixtures in equal doses. It was frequently observed that the efficacies of the combinations exceeded the total of the individual activities.
(§6) In cases with less clear effects, the expected value was calculated using Colby's formula and compared with the empirically determined result. The calculated efficacy of a combination which is expected in theory is determined is using S.R. Colby's formula: “Calculation of synergistic and antagonistic responses of herbicide combinations”, Weeds 15 (1967), pages 20 to 22.
(§7) [formula] where • X=% damage caused by herbicide A at a rate of ×kg a.i./ha; • Y=% damage caused by herbicide B at a rate of y kg a.i./ha; • Z=% damage caused by a further herbicide C at a rate of z kg a.i./ha; • E=expected value, i.e. expected damage caused by herbicides A+B (or A+B+C) at x+y (or x+y+z) kg a.i./ha.
(§8) Synergistic effects were assumed to be when the empirical value exceeded the expected value. In the case of combinations with individual components with the same active substances, comparisons via the total formula were also possible.

[2] = system: Apera spica venti; assay: Herbicidal action on APESV, visual scoring vs untreated, post-emergence 2-4 leaf stage; conditions: Table 1
Method: as §1, §2, §3, §4, §5, §6, §7, §8

[3] = system: Lolium multiflorum; assay: Herbicidal action on LOLMU, visual scoring vs untreated, post-emergence 2-4 leaf stage
Method: as §1, §2, §3, §4, §5, §6, §7, §8

Work on `COC(=O)c1ccc(I)cc1S(=O)(=O)NC(=O)Nc1nc(C)nc(OC)n1.[Na]` [A), sodium salt of methyl 4-iodo-2-[3-(4-methoxy-6-methyl-1,3,5-triazin-2-yl)ureidosulfonyl]benzoate] yielded a PHACA % control ([1]; Table 1, 3 g of a.i./ha) of 0%, a PHACA % control ([1]; Table 1, 5 g of a.i./ha) of 15% and a PHACA % control ([1]; Table 1, 10 g of a.i./ha) of 35%. The PHACA % control ([1]; Table 1, 20 g of a.i./ha) was 53%, the PHACA % control ([1]; Table 2, 3 g of a.i./ha) was 0% and the PHACA % control ([1]; Table 2, 5 g of a.i./ha) was 15%. For the same molecule, the PHACA % control ([1]; Table 2, 10 g of a.i./ha) was 35%, the PHACA % control ([1]; Table 2, 20 g of a.i./ha) was 53% and the PHACA % control ([1]; Table 3, 3 g of a.i./ha) was 0%. For the same molecule, the PHACA % control ([1]; Table 3, 5 g of a.i./ha) was 15%, the PHACA % control ([1]; Table 3, 10 g of a.i./ha) was 35% and the PHACA % control ([1]; Table 3, 20 g of a.i./ha) was 53%. The APESV % control ([2]; 3 g of a.i./ha) was 85%, the APESV % control ([2]; 5 g of a.i./ha) was 93% and the APESV % control ([2]; 10 g of a.i./ha) was 97%. For the same molecule, the APESV % control ([2]; 20 g of a.i./ha) was 98%, the LOLMU % control ([3]; Table 2, 3 g of a.i./ha) was 0% and the LOLMU % control ([3]; Table 2, 5 g of a.i./ha) was 5%. The LOLMU % control ([3]; Table 2, 10 g of a.i./ha) was 10%, the LOLMU % control ([3]; Table 2, 20 g of a.i./ha) was 48% and the LOLMU % control ([3]; Table 3, 3 g of a.i./ha) was 0%. For the same molecule, the LOLMU % control ([3]; Table 3, 5 g of a.i./ha) was 5%, the LOLMU % control ([3]; Table 3, 10 g of a.i./ha) was 10% and the LOLMU % control ([3]; Table 3, 20 g of a.i./ha) was 48%. For the same molecule, the LOLMU % control ([3]; Table 5, 2.5 g of a.i./ha) was 68%, the LOLMU % control ([3]; Table 5, 5 g of a.i./ha) was 75% and the LOLMU % control ([3]; Table 5, 10 g of a.i./ha) was 83%.
